Experimental data from patent US10098880B2 (CELLWORKS GROUP INC., priority 2014, dated 2018).

How the values were obtained:
[1] = cited from earlier work
[2] = molecular target: T1, HMG-CoA reductase (Homo sapiens, UniProt P04035); details: in vitro; cited from earlier work
T1 sequence (P04035 1-888): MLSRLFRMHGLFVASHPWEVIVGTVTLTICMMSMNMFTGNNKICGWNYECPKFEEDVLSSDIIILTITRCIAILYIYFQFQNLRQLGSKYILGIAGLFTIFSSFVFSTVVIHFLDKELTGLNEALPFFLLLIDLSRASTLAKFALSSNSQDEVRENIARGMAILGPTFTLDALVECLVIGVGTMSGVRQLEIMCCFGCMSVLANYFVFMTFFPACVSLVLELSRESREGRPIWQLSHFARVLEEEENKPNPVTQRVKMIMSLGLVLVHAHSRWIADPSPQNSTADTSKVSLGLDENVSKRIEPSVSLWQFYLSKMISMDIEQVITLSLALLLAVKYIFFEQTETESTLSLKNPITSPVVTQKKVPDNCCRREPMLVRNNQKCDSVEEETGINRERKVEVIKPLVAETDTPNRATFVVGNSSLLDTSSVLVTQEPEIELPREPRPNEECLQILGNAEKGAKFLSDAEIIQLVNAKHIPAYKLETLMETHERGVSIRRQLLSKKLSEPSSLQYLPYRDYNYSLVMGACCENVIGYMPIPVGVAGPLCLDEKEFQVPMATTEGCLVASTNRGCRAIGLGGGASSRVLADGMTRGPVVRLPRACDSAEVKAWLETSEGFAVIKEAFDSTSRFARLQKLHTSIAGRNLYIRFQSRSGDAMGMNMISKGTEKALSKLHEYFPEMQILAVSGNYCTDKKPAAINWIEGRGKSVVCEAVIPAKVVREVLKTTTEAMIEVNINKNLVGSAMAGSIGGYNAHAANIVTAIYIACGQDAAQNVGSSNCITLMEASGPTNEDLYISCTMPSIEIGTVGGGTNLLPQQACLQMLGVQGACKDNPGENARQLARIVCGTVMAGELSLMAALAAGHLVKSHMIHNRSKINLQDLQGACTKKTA

[3] = test system: LN229 cell line (TP53 and CDKN2A mutated); experiment: In-vitro relative growth assay (CellTiter 96 Aqueous One), LN229 cell line; type: cell-based, human; details: FIG. 4A: Nelfinavir 5 μM, Metformin 0.5 mM, Rosuvastatin 12.5 μM, individually or combined, about 71 hours
Method: (§1) U251 cell line is procured from Sigma-Aldrich (Catalog number: 09063001). The U87 human cell line is procured from ATCC (American Type Culture Collection, Manassas, Va., ATCC® HTB-14TM). LN229 cell line is procured from ATCC (American Type Culture Collection, Manassas, Va., […]). […] 100 μl/well of the diluted sample is added to assay plate containing resuspended cells. […] The assay plate is incubated for about 71 hours followed by addition of about 20 μl of Promega Substrate CellTiter 96 Aqueous One Solution Reagent to each well. It is incubated at 37° C. The absorbance of the sample is read at about 490 nm.

[4] = molecular target: AKT (Homo sapiens, UniProt P31749); details: reported, PMID 23454896; inhibition of AKT phosphorylation at Ser473; cited from earlier work
[5] = test system: U87 cell line (PTEN and CDKN2A mutated); experiment: In-vitro relative growth assay (CellTiter 96 Aqueous One), U87 cell line; type: cell-based, human; details: FIG. 4A: Nelfinavir 5 μM, Metformin 0.5 mM, Rosuvastatin 12.5 μM, individually or combined, about 71 hours
Method: [table] U251 cell line is procured from Sigma-Aldrich (Catalog number: 09063001). The U87 human cell line is procured from ATCC (American Type Culture Collection, Manassas, Va., ATCC® HTB-14TM). LN229 cell line is procured from ATCC (American Type Culture Collection, Manassas, Va., […]). […] DMSO, Digitoxin and drugs (Nelfinavir, Metformin and Rosuvastatin individually and in combination) are serial diluted in an assay media. 100 μl/well of the diluted sample is added to assay plate containing resuspended cells. […] The assay plate is incubated for about 71 hours followed by addition of about 20 μl of Promega Substrate CellTiter 96 Aqueous One Solution Reagent to each well. It is incubated at 37° C. The absorbance of the sample is read at about 490 nm.

[6] = test system: U251 cell line (PTEN, TP53 and CDKN2A mutated); experiment: In-vitro relative growth assay (CellTiter 96 Aqueous One), U251 cell line; type: cell-based, human; details: FIG. 4A: Nelfinavir 5 μM, Metformin 0.5 mM, Rosuvastatin 12.5 μM, individually or combined, about 71 hours
Method: as §1

[7] = cited from earlier work; remark: listed apart in the source
[8] = cited from earlier work; remark: listed apart in the source
[9] = oral 750 mg dose containing 14C-nelfinavir

AKT, sequence (P31749 whole entry): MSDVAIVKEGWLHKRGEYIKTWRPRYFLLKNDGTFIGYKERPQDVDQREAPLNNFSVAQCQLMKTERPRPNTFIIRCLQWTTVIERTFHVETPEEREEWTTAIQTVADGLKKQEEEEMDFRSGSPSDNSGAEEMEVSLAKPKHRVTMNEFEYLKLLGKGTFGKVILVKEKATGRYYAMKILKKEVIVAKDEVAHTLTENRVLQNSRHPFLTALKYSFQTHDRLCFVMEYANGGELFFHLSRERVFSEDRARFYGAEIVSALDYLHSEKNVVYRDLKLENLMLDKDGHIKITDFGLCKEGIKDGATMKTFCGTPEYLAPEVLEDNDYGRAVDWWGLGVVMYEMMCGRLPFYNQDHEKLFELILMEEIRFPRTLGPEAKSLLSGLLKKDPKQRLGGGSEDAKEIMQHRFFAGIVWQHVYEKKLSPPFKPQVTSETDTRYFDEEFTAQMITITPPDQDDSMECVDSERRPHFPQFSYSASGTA

SMILES: CN(C)C(=N)N=C(N)N [Metformin, 1-carbamimidamido-N,N-dimethyl-methanimidamide]
- time of peak action ([1]; after oral administration): 3 h
- Duration of action ([1]; in vivo): 8 to 12 h
- time over which absorbed ([1]; in vivo): 6 h
- drug eliminated in 24 hours ([1]; those with healthy renal function): Approximately 90%

SMILES: CC(C)c1nc(NS(C)(=O)=O)nc(-c2ccc(F)cc2)c1/C=C/[C@@H](O)C[C@@H](O)CC(=O)O [N-desmethylrosuvastatin]
- pharmacological activity relative to parent compound [2]: approximately 50%

SMILES: Cc1c(O)cccc1C(=O)N[C@@H](CSc1ccccc1)[C@H](O)CN1C[C@H]2CCCC[C@H]2C[C@H]1C(=O)NC(C)(C)C [Nelfinavir, (3S,4aS,8aS)-N-tert-butyl-2-[(2R,3R)-2-hydroxy-3-[(3-hydroxy-2-methylbenzoyl)amino]-4-phenylsulfanylbutyl]-3,4,4a,5,6,7,8,8a-octahydro-1H-isoquinoline-3-carboxamide]
- reduction in relative growth [3]: do not show much efficacy
- concentration causing AKT inhibition [4]: 20 µM
- reduction in relative growth [5]: do not show much efficacy
- reduction in relative growth [6]: do not show much efficacy
- predominant enzymes that metabolize nelfinavir ([7]; in humans, hepatic CYP450): CYP3A and CYP2C19
- Half-life (terminal half-life in plasma) ([7]; in vivo): 3.5 to 5 h
- dose recovered in the feces [7, 9]: 87%
- dose recovered in urine [7, 9]: 1-2%
- fecal radioactivity as oxidative metabolites [7, 9]: 78%
- fecal radioactivity as unchanged nelfinavir [7, 9]: 22%
- Absorption ([7]; oral administration): Well absorbed

SMILES: CC(C)c1nc(N(C)S(C)(=O)=O)nc(-c2ccc(F)cc2)c1/C=C/[C@@H](O)C[C@@H](O)CC(=O)O [Rosuvastatin, (E,3R,5S)-7-[4-(4-fluorophenyl)-2-[methyl(methylsulfonyl)amino]-6-propan-2-ylpyrimidin-5-yl]-3,5-dihydroxyhept-6-enoic acid]
- reduction in relative growth [3]: do not show much efficacy
- reduction in relative growth [5]: do not show much efficacy
- total body clearance by the hepatic route ([8]; after an intravenous dose): 72%
- total body clearance via the renal route ([8]; after an intravenous dose): approximately 28%
- excreted in the feces (rosuvastatin and its metabolites) ([8]; following oral administration): 90%
- Bioavailability ([8]; in vivo): approximately 20%
- Half-life ([8]; in vivo): 19 h
- excreted as metabolite ([8]; in vivo): ~10%
- increase of AUC by inhibitors of CYP2C9 ([8]; in vivo): less than 2 fold
- radiolabeled dose recovered as metabolite ([8]; in vivo): approximately 10%
- share of the pharmacologic action accounted for by parent ([8]; in vivo): greater than 90%
- reduction in relative growth [6]: do not show much efficacy
